Measurements from PMC10485906, “Development of a Dihydroquinoline–Pyrazoline GluN2C/2D-Selective Negative Allosteric Modulator of the N-Methyl-D-aspartate Receptor” (ACS Chemical Neuroscience, 2023).
Like-named read-outs stand apart in the source and are kept apart here.

Key:
[1] = molecular target: GluN1/GluN2D (Rattus norvegicus, UniProt Q62645); assay: Whole-cell voltage-clamp recordings, HEK cells, GluN1/GluN2D (agonist dependence); format: cell-based
Source text: (§1) We previously described the actions of the GluN2C/GluN2D-preferring negative allosteric modulator DQP-1105 as dependent on glutamate (but not glycine) binding, in that DQP-1105 affinity increases after GluN1/GluN2D NMDARs bind glutamate.[32] […] The concentration-dependent relaxation is indicative of an agonist-induced increase in potency that leads to re-equilibration of the inhibitor after agonist binding induces an increase in inhibitor affinity. We investigated the glutamate dependence of compound 2i (GluN1/GluN2D, Figure 4; GluN1/GluN2C, Figure S2), DQP-1105 (Figure S1), and compound (S)-2a (DQP-69;[33]Figure S3) using the same protocols.
(§2) We preincubated cells with glycine and the inhibitor 2i (DQP-997-74) and compared inhibitor potency during the peak and steady-state current responses to glutamate application. […] To investigate the time course of 2i inhibition, we fitted the relaxation of the current response with a single exponential function. If the current response time course reflects 2i binding, then the reciprocal of τinhibition should be linearly related to its concentration, with the slope equal to kON and intercept equal to kOFF. […] The deactivation of GluN1/GluN2D receptors (5.3 ± 0.2 s) was slowed by the presence of compound 2i when applied at concentrations of 0.1 μM (7.3 ± 0.3 s; p = 0.017) and 0.3 μM (10.5 ± 1.0 s; p = 0.002) but not at 0.03 μM (5.6 ± 0.3 s; p = 0.518; Figure 4E). […] This phenomenon was previously discovered for QNZ-46, a glutamate-dependent GluN2C/2D-selective inhibitor with a different structural core.[42] As proposed in that study, the prolonged deactivation may indicate that 2i slows a conformational change necessary for glutamate unbinding or 2i may need to unbind before glutamate can unbind.
(§3) In addition, we evaluated how glutamate dependence affects inhibition of responses to brief agonist applications similar to phasic glutamate release that occurs at synapses. To do so, we preincubated cells expressing GluN1/GluN2D receptors with the inhibitor 2i and then applied trains of five brief pulses of NMDA (which dissociates more rapidly than glutamate) and glycine from a pressurized micropipette to mimic repetitive synaptic transmission (Figure 4F). We measured the peak amplitude and compared the concentration–response curves for the inhibition of the first and last response (Figure 4G). The initial train of pulses in the absence of drug controls for systematic errors such as internalization of receptors.
(§4) To further evaluate whether 2i followed the law of mass action, we coapplied different concentrations of 2i with glutamate during the steady-state glutamate and glycine responses of GluN1/GluN2D receptors expressed in HEK cells (Figure 4H). […] We also fitted the onset and offset time course of the inhibition produced by compound 2i with a single exponential function (Figure 4J).
(§5) HEK293 cells (HEK, ATCC CRL-1573) were plated on glass coverslips pretreated with 0.1 mg/mL poly-D-lysine and cultured in Dulbecco’s modified Eagle medium (DMEM) plus Glutamax (GIBCO 10569-10) supplemented with 10% fetal bovine serum, 10 U/mL of penicillin, and 10 μg/mL of streptomycin at 37 °C and 5% CO2. The cells were transiently transfected with cDNA encoding rat GluN1, GluN2D, and eGFP at a ratio of 1:1:5 by using the calcium phosphate precipitation method.[48] After 24–48 h following the transfection, the cells were perfused with external recording solution that contained (in mM) 3 KCl, 150 NaCl, 0.01 EDTA, 1.0 CaCl2, 10 HEPES, and 22 D-mannitol (the pH was adjusted to 7.4 with NaOH). The patch electrodes (resistance 3–5 MΩ) were prepared from thin-walled glass micropipettes (TW150F-4, World Precision Instruments, Sarasota, FL) by a dual-stage glass micropipette puller (PC-10, Narishige, Tokyo, Japan) and filled with internal solution containing (in mM) 110 D-gluconate, 110 CsOH, 30 CsCl, 5 HEPES, 4 NaCl, 0.5 CaCl2, 2 MgCl2, 5 BAPTA, 2 NaATP, and 0.3 NaGTP. […]

[2] = molecular target: GluN1/GluN2D (Rattus norvegicus, UniProt P35439+Q62645); assay: as above; format: cell-based; conditions: for Kd: from kON and kOFF
Sequence of GluN1/GluN2D (Rattus norvegicus, UniProt P35439+Q62645) (Q62645 28-1323, other chains not shown): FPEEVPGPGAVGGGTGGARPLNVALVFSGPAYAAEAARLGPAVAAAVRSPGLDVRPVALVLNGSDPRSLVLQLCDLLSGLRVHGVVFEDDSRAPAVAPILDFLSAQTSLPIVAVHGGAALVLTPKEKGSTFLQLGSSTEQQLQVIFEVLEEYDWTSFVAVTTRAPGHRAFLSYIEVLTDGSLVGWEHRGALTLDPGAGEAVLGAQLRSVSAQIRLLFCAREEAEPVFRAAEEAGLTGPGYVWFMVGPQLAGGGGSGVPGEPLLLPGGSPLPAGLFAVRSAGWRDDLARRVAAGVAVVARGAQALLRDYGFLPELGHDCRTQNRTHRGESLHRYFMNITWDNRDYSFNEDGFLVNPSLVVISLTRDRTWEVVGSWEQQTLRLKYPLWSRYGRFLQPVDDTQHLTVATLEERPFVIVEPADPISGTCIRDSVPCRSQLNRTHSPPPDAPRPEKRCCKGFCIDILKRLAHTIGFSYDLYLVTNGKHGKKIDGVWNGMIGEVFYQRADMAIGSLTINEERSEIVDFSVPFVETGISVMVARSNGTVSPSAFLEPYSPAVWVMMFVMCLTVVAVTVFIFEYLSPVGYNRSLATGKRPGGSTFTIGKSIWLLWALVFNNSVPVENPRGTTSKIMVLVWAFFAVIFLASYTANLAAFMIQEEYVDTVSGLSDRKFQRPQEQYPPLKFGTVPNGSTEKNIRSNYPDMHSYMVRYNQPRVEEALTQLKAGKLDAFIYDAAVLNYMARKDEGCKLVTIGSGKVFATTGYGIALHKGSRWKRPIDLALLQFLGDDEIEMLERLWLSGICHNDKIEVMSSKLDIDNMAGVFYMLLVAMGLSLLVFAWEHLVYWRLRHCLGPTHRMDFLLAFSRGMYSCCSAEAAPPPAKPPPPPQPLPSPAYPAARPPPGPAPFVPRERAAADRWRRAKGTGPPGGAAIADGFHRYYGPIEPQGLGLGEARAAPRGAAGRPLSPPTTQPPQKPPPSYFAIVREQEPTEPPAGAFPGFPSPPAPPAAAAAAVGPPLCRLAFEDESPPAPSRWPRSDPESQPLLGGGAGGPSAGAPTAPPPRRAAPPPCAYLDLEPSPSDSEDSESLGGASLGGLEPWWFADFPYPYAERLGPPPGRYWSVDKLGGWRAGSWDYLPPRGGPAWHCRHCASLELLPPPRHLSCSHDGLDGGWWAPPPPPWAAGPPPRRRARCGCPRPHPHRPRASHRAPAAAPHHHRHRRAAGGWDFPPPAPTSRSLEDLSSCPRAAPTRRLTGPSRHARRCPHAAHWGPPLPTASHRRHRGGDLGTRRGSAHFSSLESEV
Source text: as §1, §2, §3, §4, §5

[3] = HEK293, coapplication with glutamate
[4] = HEK293, inhibitor preapplied, linear regression of 1/τinhibition vs concentration

Sequence of GluN1/GluN2D (Rattus norvegicus, UniProt Q62645) (Q62645 28-1323, other chains not shown): as above

τdeactivation following glutamate removal ([1]; 0.03 μM compound, mean ± SEM): 5.6 ± 0.3 s
τdeactivation following glutamate removal ([1]; 0.1 μM compound, mean ± SEM): 7.3 ± 0.3 s
τdeactivation following glutamate removal ([1]; 0.3 μM compound, mean ± SEM): 10.5 ± 1.0 s
Hill slope ([1]; coapplication with glutamate): 0.93
fold-change in IC50 for the peak and steady-state current responses ([1]; mean ± SEM, compared by ANOVA): 3.0 ± 0.3
IC50 fold higher during peak compared to steady-state ([1]; ratio of IC50 values): 3 fold
IC50 fold higher at first pulse compared to fifth pulse ([1]; trains of brief agonist applications): 1.9 fold
koff [2, 3]: 0.05 s⁻¹
kon [2, 3]: 210000 M⁻¹ s⁻¹
koff [2, 4]: 0.17 s⁻¹
kon [2, 4]: 400000 M⁻¹ s⁻¹
Kd ([2]; coapplication with glutamate): 240 nM
IC50 ([2]; compound coapplied with glutamate during steady-state response, read-out: IC50 steady-state inhibition, coapplication): 100 nM
IC50 ([2]; fifth of 5 brief NMDA (500 μM)/glycine (250 μM) pulses at 1 s intervals, read-out: IC50 pulse 5 (95% CI)): 400 nM
IC50 ([2]; first of 5 brief NMDA (500 μM)/glycine (250 μM) pulses at 1 s intervals, read-out: IC50 pulse 1 (95% CI)): 750 nM
Kd ([2]; inhibitor preapplied): 430 nM
IC50 ([2]; peak current response to glutamate, inhibitor preapplied, read-out: IC50 peak (95% CI)): 230 nM
IC50 ([2]; steady-state current response to glutamate, inhibitor preapplied, read-out: IC50 steady-state (95% CI)): 80 nM
SMILES: O=C(O)CC(F)(F)C(=O)N1N=C(c2c(-c3ccc(Cl)cc3)c3ccccc3[nH]c2=O)CC1c1ccc(Cl)cc1 (stereo not drawn) [2i]
